# Structures can show the parent of a compound that is named as a salt.
# How the values were obtained:
# [1] = target: T1, c-Kit (Rattus norvegicus, UniProt F7EWK5); type: in vivo; conditions: gambling rats, imatinib mesylate 30 mg/kg
# T1 construct: from tissue; host or cells: rat brain (nucleus accumbens, prefrontal cortex, hippocampus and other regions)
# [2] = system: high-sugar and high-fat food CPP; experiment: High-sugar and high-fat food CPP after environmental or unconditioned re-exposure, nucleus accumbens microinjection; type: in vivo, rat; conditions: rats
# [3] = system: high-sugar and high-fat food CPP; experiment: Formation of conditioned place preference on high-sugar and high-fat food in rats; type: in vivo, rat; conditions: imatinib mesylate 1, 5, 10, 20 and 30 mg/kg i.p.
# [4] = system: high-sugar and high-fat food CPP; experiment: High-sugar and high-fat food CPP after environmental or unconditioned re-exposure, intraperitoneal administration; conditions: rats
# [5] = system: gambling behavior; experiment: Dose effect on gambling behavior in rats under gambling task (rGT) conditions; type: in vivo, rat
# Description: A gambling behavior model of rats was established: firstly, the animals were acclimated to the operating chamber twice a day for 30 min each time, during which sucrose granules were placed on the reaction wells and the food bank. After acclimation, animals were trained to poke their noses into one of the luminescent reaction wells within 10 s to obtain a reward. Spatial positions of the stimulus light would appear in different wells of wells 1, 2, 4 and 5 in different experiments. Each session consisted of 100 trials lasting approximately 30 min. Animals were then trained 7 times for forced-choice rGT (or an rGT variant of the control group), and then underwent a completely free-choice task. This ensured that all animals had the same experience under the four reinforcement conditions and were designed to prevent simple prejudice against specific wells. The percentage of trials in which animals chose a particular option was calculated according to the formula in reference: Choices of a particular option/Total choices of 100 (Di C P, Manvich D F, Pushparaj A, et al. Effects of disulfiram on choice behavior in a rodent gambling task: association with catecholamine levels[J]. Psychopharmacology, 2018, 235(1):23-35). Each experiment lasted 30 min and experimental subjects responded with a nose poke on the illuminated food bank, which turned off the tray light and triggered the initiation of a 5-s intertrial interval (ITT). At the end of the ITI, wells 1, 2, 4 and 5 were illuminated for 10 s (in the forced-choice version of the task used in the training, only one well was illuminated).
# Explanation to the above table: four wells in the experimental apparatus were respectively provided with different reward probability and penalty probability, as well as corresponding reward sucrose amount and penalty time.
# After training, the rats were given with drugs. […] The rats in the direct administration group were directly given with imatinib (1, 5, 10, 20 and 30 mg/kg, ip) or saline (1 mL/kg, ip) without being placed in the experimental device. […]
# [6] = system: morphine CPP; experiment: Formation of morphine conditioned place preference (CPP) in mice; type: in vivo; conditions: imatinib mesylate 45 mg/kg i.p. 30 min before morphine 15 mg/kg s.c., test day 10
# [7] = target: T1, c-Kit; type: in vivo; conditions: rats, imatinib mesylate 30 mg/kg i.p. 30 min before morphine or saline
# Description: (§1) After 1 h, anesthesia and perfusion were performed, a brain tissue was fixed with a 4% paraformaldehyde solution, dehydrated in alcohol solutions with different concentrations, hyalinized in xylene, embedded in paraffin, and then cut into 3 μm-thick sections. Tissues were deparaffinized, boiled in 0.01M sodium citrate buffer (pH 6.0) for 10-15 min, and cooled in cold water to room temperature.
# [8] = system: morphine CPP; conditions: mice
# [9] = system: gambling behavior; experiment: Rat gambling behavior model (rGT), Example 9; type: in vivo; conditions: rats, imatinib mesylate 30 mg/kg
# Description: A gambling behavior model of rats was established: animals were first accustomed to the operating chambers twice a day for 30 min each time, during which sucrose granules were placed on the reaction wells and the food banks. Animals were then trained to poke their noses into one of the luminescent reaction wells within 10 s to obtain a reward. Space positions of the stimulus light were varied in different experiments of wells 1, 2, 4 and 5. Each session consisted of 100 trials lasting approximately 30 min. After 5 trials, animals continued to complete 100 trials. Animals were then trained 7 times for forced-choice rGT (or an rGT variant of the control group), followed by a completely free-choice task, ensuring that all animals had the same experience in the four reinforcement conditions and were designed to prevent simple prejudice against specific wells. The percentage of animals selected for a particular option trial was calculated according to the formula […].
# [10] = system: c-Kit; type: in vivo, rat
# Description: Under the guidance of NIR-II fluorescence imaging, dynamic changes of the brain regions of the rats were dynamically monitored and photographed at 2 h, 6 h, 8 h and 12 h with a near-infrared II region imaging camera, respectively, so as to indicate changes in a phosphorylation level of c-Kit protein.
# [11] = system: c-Kit; type: in vivo, rat; conditions: rats, 1 h after acute morphine 10 mg/kg s.c., compared with normal rats
# Description: as §1
# [12] = rats exposed to the environment, 10, 20 and 30 mg/kg ip, compared to control group
# T1 sequence (F7EWK5 26-978): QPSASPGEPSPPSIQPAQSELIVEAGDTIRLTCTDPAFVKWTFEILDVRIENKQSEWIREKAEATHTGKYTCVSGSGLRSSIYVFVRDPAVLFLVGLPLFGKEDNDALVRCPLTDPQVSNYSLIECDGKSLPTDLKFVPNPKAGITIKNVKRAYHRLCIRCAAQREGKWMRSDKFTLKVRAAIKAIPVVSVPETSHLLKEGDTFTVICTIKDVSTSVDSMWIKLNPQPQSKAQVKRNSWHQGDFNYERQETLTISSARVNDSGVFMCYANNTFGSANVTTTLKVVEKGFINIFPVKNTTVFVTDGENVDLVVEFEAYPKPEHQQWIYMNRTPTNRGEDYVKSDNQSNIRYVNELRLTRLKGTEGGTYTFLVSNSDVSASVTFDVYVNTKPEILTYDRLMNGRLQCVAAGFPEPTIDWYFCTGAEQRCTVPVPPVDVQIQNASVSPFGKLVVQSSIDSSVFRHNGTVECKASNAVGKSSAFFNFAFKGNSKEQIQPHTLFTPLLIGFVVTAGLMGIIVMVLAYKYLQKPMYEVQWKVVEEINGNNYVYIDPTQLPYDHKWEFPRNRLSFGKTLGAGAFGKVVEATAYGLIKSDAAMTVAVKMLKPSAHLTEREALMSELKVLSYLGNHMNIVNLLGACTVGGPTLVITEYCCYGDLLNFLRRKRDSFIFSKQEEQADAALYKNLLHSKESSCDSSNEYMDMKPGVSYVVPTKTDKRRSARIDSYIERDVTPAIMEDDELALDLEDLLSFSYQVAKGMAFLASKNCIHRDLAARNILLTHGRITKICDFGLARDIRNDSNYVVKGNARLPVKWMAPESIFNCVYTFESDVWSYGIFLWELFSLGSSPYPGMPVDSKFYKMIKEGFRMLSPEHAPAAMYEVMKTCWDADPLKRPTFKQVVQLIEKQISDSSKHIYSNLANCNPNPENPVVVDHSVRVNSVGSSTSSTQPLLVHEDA
SMILES,phosphorylation level of c-Kit [1],food-seeking behavior caused by the environment and food ([2]; nucleus accumbens microinjection 4 μg/0.5 μL),"ignition of CPP ([2]; nucleus accumbens microinjection, after 2 weeks)",formation of conditioned place preference on high-sugar and high-fat food [3],"ignition of CPP ([4]; i.p. administration, small amount of high-sugar and high-fat food, after 2 weeks)","food-seeking behaviors induced by environment and food ([4]; imatinib mesylate 1, 5, 10, 20 and 30 mg/kg i.p. after re-exposure)","effect on gambling choice in rGT ([5]; rats as directly administered, any dose (1-30 mg/kg ip))","choice at P4 in rGT [5, 12]","optimal choice at P2 in rGT [5, 12]",formation of conditioned place preference (CPP score) [6],"phosphorylation activity of c-Kit protein in nucleus accumbens, prefrontal cortex and hippocampus [7]",CPP Score after re-exposure to environmental cues ([8]; imatinib mesylate 45 mg/kg i.p. 30 min before re-exposure),"ignition of morphine CPP ([8]; small dose of morphine 5 mg/kg i.p., after 1 week)",gambling behavior [9],time at which enrichment intensity of the probes reached a peak ([10]; rats after acute morphine administration),"phosphorylation activity of c-Kit in the brains of the rats (brain brightness) ([10]; rats, acute morphine 10 mg/kg s.c., contrast with normal saline group)",phosphorylation level of c-Kit protein in nucleus accumbens regions [11],"phosphorylation level of c-Kit protein in prefrontal cortex, hippocampus and other regions [11]"
Cc1ccc(NC(=O)c2ccc(CN3CCN(C)CC3)cc2)cc1Nc1nccc(-c2cccnc2)n1 [imatinib mesylate],significantly inhibited,inhibited,not ignited,inhibited,not ignited,inhibited,no significant effect,reduced,significantly increased,could not be formed normally,significantly decreased,significantly reduced,not ignited,significantly eliminated,,,,
CN1CC[C@]23c4c5ccc(O)c4O[C@H]2[C@@H](O)C=C[C@H]3[C@H]1C5 [morphine],,,,,,,,,,,,,,,6 h,significantly enhance,significantly increased,no significant change

# From patent publication US20220220533A1, “METHOD OF DIAGNOSING AND MONITORING SUBSTANCE ADDICTION OR BEHAVIORAL ADDICTION USING C-KIT BIOMARKER” (Wuhan University, priority 2019, published 2022)
